Experiments:
[1] = tested on: Mouse colon cancer colon 26 cells; assay: Combined administration of LPA and oxaliplatin, tumor growth in colon 26 cell tumor-bearing mice; format: in vivo; settings: colon 26 tumors in BALB/c mice; LPA 3 mg/kg i.p.; oxaliplatin 1.5 mg/kg i.p.
Description: LLC cells were subcutaneously inoculated into C57BL/6 NCrSlc mice aged 8 weeks in the same manner as in Example 1. An LPA administration solution was prepared in the same manner as in Example 1. The anticancer drug used was 5-FU (Kyowa Hakko Kirin Co., Ltd.). The 5-FU was prepared as a solution in physiological saline (Otsuka Pharmaceutical Co., Ltd.). On day 7 post-inoculation of LLC cells, mice with a tumor volume of 30 to 50 mm^3 were selected and subjected to the test. The mice were divided into four groups: control group, 5-FU group, LPA group and 5-FU/LPA group (n=3). LPA (3 mg/kg in 100 μL PBS) or 5-FU (100 mg/kg in 100 μL PBS) or PBS (100 μL) was administered intraperitoneally. To 5-FU/LPA group, both LPA and 5-FU were administered intraperitoneally. LPA and PBS were administered once daily for consecutive seven days. 5-FU was administered twice in total, once a week for two weeks (on days 7 and 14 post-inoculation). The tumor size was measured over time after start of administration. The tumor volume was calculated by the formula: volume=length×width×height×0.5. Mice at 2 weeks after start of administration were photographed with a digital camera under anesthesia with pentobarbital. The tumors were harvested and photographed with a digital camera.
Mouse colon cancer colon 26 cells were used. […]

[2] = tested on: tumor blood vessels of LLC cell tumors; assay: Structural changes in tumor blood vessels after LPA administration (anti-CD31 immunostaining, AngioTool); format: in vivo; settings: LLC tumor-bearing mice, LPA 3 mg/kg i.p.
Description: Lewis lung cancer cell line (hereinafter called LLC cells) was used as the mouse cancer cell line. LLC cells (1×10^6 cells in 100 μL PBS per animal) were subcutaneously injected into C57BL/6 NCrSlc mice aged 8 weeks (females, SLC, Inc.).
The LPA used was 18:1 LPA (Avanti Polar Lipids, Inc.). A 10 mM LPA stock solution was prepared using 50% ethanol and the solution was stored at −30° C. Before use, the LPA stock solution was thawed and homogenized with an ultrasonic cleaner (SND Co., Ltd.) for 1 minute. The solution was diluted in PBS before administration so that the concentration of LPA was 3 mg/kg in 100 μL PBS. The prepared solution was used for LPA administration.
Day 9 post-inoculation of LLC cells, mice that developed a tumor with a volume of 60 to 80 mm^3 (volume=length×width×height×0.5) were selected and used for the test. Four groups each of three mice were provided: control group, LPA/6 hr group, LPA/12 hr group and LPA/24 hr group. LPA was intraperitoneally administered to the mice of the LPA groups at a dose of 3 mg/kg in 100 μL PBS. The tumors were harvested before LPA administration (control group), and at 6, 12 and 24 hours after LPA administration. The tumors were immersed in 4% paraformaldehyde (PFA)/PBS and shaken at 4° C. overnight for fixation. The tumors were washed with cold PBS (4° C.). Washing was continued for 6 hours, and PBS was renewed every 30 minutes. The tumors were immersed in 15% sucrose/PBS and shaken at 4° C. for 3 hours. The tumors were then immersed in 30% sucrose/PBS and shaken at 4° C. for 3 hours. The tumors were embedded in O.C.T compound (Tissue-Tek) and frozen at −80° C. for 3 days or longer.
The tumors embedded in O.C.T. compound were sectioned at 40 μm with a cryostat (Leica). The sections were placed on glass slides, and air-dried for 2 hours with a drier. The sections were encircled with a liquid blocker. […] The vessel length was measured in the photographs using the vascular structure analysis software AngioTool.

Substance: lysophosphatidic acid [LPA]
- tumor growth (tumor volume) [1]: some inhibitory effects on tumor growth as compared with the control, up to day 17 post-inoculation
- structure of tumor blood vessels (vascular network) ([2]; 12 and 24 hours after administration): the formation of a fine vascular network similar to that in normal tissues was observed
- structure of tumor blood vessels (vascular network) ([2]; 6 hours after administration): the connection of the blood vessels was observed
- average length of blood vessels (AngioTool) ([2]; vs before administration): the length of blood vessels was increased
